Measurements taken from US7794795B2, “Hybrid anti-fouling coating compositions and methods for preventing the fouling of surfaces subjected to a marine environment” (The Research Foundation of State University of New York, priority 2003, dated 2010).

Assays:
[1] = Thiol peroxidase activity: oxidation of PhSH with H2O2, stopped-flow; details: for k0, initial linear increase in absorbance: PhSH 1 × 10^−3 M, H2O2 3.75 × 10^−3 M, catalyst 1 × 10^−5 M, MeOH (5% CH2Cl2; 46% for 22), 276.8 K, 305 nm; for v0 (rel): relative to 23a = 1; for v0, initial rate of oxidation of PhSH: same conditions, k0 corrected for the uncatalyzed reaction
Protocol: (§1) All stopped-flow experiments were performed on a SX18 Stopped-Flow Spectrometer (Applied Photophysics, Leatherhead, UK). The sample-handling unit was fitted with two drive syringes that are mounted inside a thermostatted-bath compartment, which allowed for variable temperature experimentation. The optical detection cell was set up in the 2-mm pathlength. First- and second-order curve fitting and rate constants used a Marquardt algorithm (Marquardt, J. Soc. Indust Appl. Mathematics, 11:431 et al. (1963), which is hereby incorporated by reference in its entirety) based on the routine Curfit (Bevington, Data Reduction and Error Analysis for the Physical Sciences, McGraw-Hill, New York (1969), which is hereby incorporated by reference in its entirety).
Stock solutions of 2.0×10^−3 M of catalyst in CH2Cl2 and 5.0×10^−2 M PhSH in CH2Cl2 were prepared. These were diluted with MeOH to give a 5% CH2Cl21MeOH solution of 2.0×10^−5 M telluride and 2.0×10^−3 PhSH. A stock solution of 7.50×10^−3 M H2O2 in MeOH was prepared. These two solutions were mixed in the stopped-flow spectrometer to give concentrations of 1.0×10^−5 M telluride, 1.0×10^−3 M PhSH, and 3.75×10^−3 M H2O2 and the increase in absorbance at 305 nm was measured. The concentration of H2O2 in the stock solution was determined from the absorbance at 240 nm (E=43.6 cm^−1 M^−1) (Riley et al., Endocrinology, 128:1749 et al. (1991); Zhao et al., Biochemistry, 40:10832 et al. (2001), which are hereby incorporated by reference in their entirety). The values in Table 1 are the average of 7-10 independent runs (± standard deviation).
In earlier work with dendrimeric organotelluride catalysts for the oxidation of halide salts with H2O2 (Francavilla et al., J. Am. Chem. Soc., 123:57 et al. (2001), which is hereby incorporated by reference in its entirety), a two-phase system of CH2Cl2 and pH-6 buffer was employed, which kept the catalysts and substrate in solution. In order to evaluate the catalysts in a homogeneous system, the method of Tomoda et al. (Iwaoka et al., J. Am. Chem. Soc., 116:2557 et al. (1994); Mugesh et al., J. Am. Chem. Soc., 123:839 et al. (2001), which are hereby incorporated by reference in their entirety) was employed to measure thiol peroxidase activity. In this procedure, thiophenol (PhSH) is oxidized to diphenyl disulfide (PhSSPh) using H2O2 as the oxidant. Catalytic activity was determined by the initial rates for the oxidation of PhSH (1.0×10^−3 M) with H2O2 (3.75×10^−3 M) in MeOH in the presence of a catalyst at a standard concentration of 1.0×10^−5 M.
A 5% CH2Cl2/MeOH solution of catalyst (9, 15, 20, 23, or 24 at 2.0×10^−5M) and PhSH (2.0×10^−3 M) was mixed with an equal volume of a 5% CH2Cl21MeOH solution of H2O2 (7.5×10^−3 M) in a stopped-flow spectrophotometer at 276.8±0.4 K to give final concentrations of […] catalyst, 1.0×10^−3 M PhSH, and 3.75×10^−3M H2O2. The rate of appearance of PhSSPh, with a molar extinction coefficient, ε, of […] at 305 nm (Mugesh et al., J. Am. Chem. Soc., 123:839 et al. (2001), which is hereby incorporated by reference in its entirety), was monitored at 305 nm. The 5% CH2Cl2 was added to keep the tellurides/oxidized tellurides in solution during the course of the reaction. For hexatellurides 22, the percentage of CH2Cl2 was increased to 46% (by volume) in both solutions to keep the dendrimers in solution during the time-course of the analysis.
A slow, uncatalyzed background reaction was observed upon mixing the two solutions in the stopped-flow spectrometer without added catalyst. Values of k0 were corrected for the uncatalyzed background reaction and converted to initial velocities, ν0, in units of […] min^−1 (Table 1). Values of ν0 as a function of the number of catalytic groups is plotted in FIG. 20.

[2] = Oxidation of monotellurides with H2O2, stopped-flow, pseudo first-order; details: for observed rate constant for oxidation: 1.03×10^−3 M telluride, 1.03×10^−2 M H2O2, 276.8 K, 5% CH2Cl2/MeOH; for second-order rate constant for oxidation: same conditions
Protocol: as §1
Stock solutions of 2.06×10^−3M telluride and 2.06×10^−2 M H2O2 in 5% CH2Cl2/MeOH were prepared. These two solutions were mixed in the stopped-flow spectrometer to give concentrations of 1.03×10^−3M telluride and 1.03×10^−2 M H2O2 and the increase in absorbance at 325 nm for 23a, 350 nm for 23b, and 352 nm for 24 was measured as a function of time for 7-10 independent runs (1 standard deviation).
The rates of oxidation of monotellurides 23 and 24 were followed in the stopped-flow spectrometer under pseudo first-order conditions. Final concentrations of 1.03×10^−3 M telluride and 1.03×10^−2 M H2O2 at 276.8±0.4 K gave observed rate constants for oxidation of (1.10±0.01)×10^−1 s^−1 for 23a, (3.62±0.02)×10^−1 s^−1 for 23b, and (4.5±0.4)×10^−1 for 24, which correspond to second-order rate constants of 10.7±0.1 M^−1 s^−1 for 23a, 35.1±0.2 M^−1 s^−1 for 23b, and 44±4 M^−1 s^−1 for 24.

Row | Structure (SMILES) | k0, initial linear increase in absorbance [1] | v0 (rel) [1] | v0, initial rate of oxidation of PhSH [1] | observed rate constant for oxidation [2] | second-order rate constant for oxidation [2] [M⁻¹ s⁻¹]
1 | CN(C)c1ccc([Te]CCCOc2cc(CO)cc(OCCC[Te]c3ccc(N(C)C)cc3)c2)cc1 [9b, 3,5-Bis[3-(4-dimethylaminophenyltelluro)propyloxy]benzyl Alcohol] | (1.69 ± 0.05) × 10^−4 ΔA s^−1 | 3.3 | (4.0 ± 0.1) × 10^1 μM min^−1 | – | –
2 | CN(C)c1ccc([Te]CCCOc2cc(CO)cc(OCCC[Te]c3ccc(N(C)C)cc3)c2OCCC[Te]c2ccc(N(C)C)cc2)cc1 [15b, 3,4,5-Tris[3-(4-dimethylaminophenyltelluro)propyloxy]benzyl Alcohol] | (3.15 ± 0.03) × 10^−4 ΔA s^−1 | 6.3 | (7.49 ± 0.07) × 10^1 μM min^−1 | – | –
3 | CCCCCC[Te]CCCOc1cc(COc2cc(CO)cc(OCc3cc(OCCC[Te]CCCCCC)cc(OCCC[Te]CCCCCC)c3)c2)cc(OCCC[Te]CCCCCC)c1 [20c, 3,5-Bis(3,5-bis[3-(n-hexyltelluro)propyloxy]benzyloxy)benzyl Alcohol] | (5.47 ± 0.07) × 10^−4 ΔA s^−1 | 11 | (1.31 ± 0.01) × 10^2 μM min^−1 | – | –
4 | CN(C)c1ccc(CCCOc2cc(COc3ccc(C(C)(c4ccc(OCc5cc(OCCCc6ccc(N(C)C)cc6)cc(OCCCc6ccc(N(C)C)cc6)c5)cc4)c4ccc(OCc5cc(OCCCc6ccc(N(C)C)cc6)cc(OCCCc6ccc(N(C)C)cc6)c5)cc4)cc3)cc(OCCCc3ccc(N(C)C)cc3)c2)cc1 [22b, 1,1,1-Tris[4-(3,5-bis[3-(4-N,N-dimethylaminophenyl)propyloxy]benzyloxy)phenyl]ethane] | (5.6 ± 0.1) × 10^−4 ΔA s^−1 | 11 | (1.34 ± 0.02) × 10^2 μM min^−1 | – | –
5 | CCCCCC[Te]CCCOc1cc(COc2ccc(C(C)(c3ccc(OCc4cc(OCCC[Te]CCCCCC)cc(OCCC[Te]CCCCCC)c4)cc3)c3ccc(OCc4cc(OCCC[Te]CCCCCC)cc(OCCC[Te]CCCCCC)c4)cc3)cc2)cc(OCCC[Te]CCCCCC)c1 [22c, 1,1,1-Tris[4-(3,5-bis[3-(n-hexyltelluro)propyloxy]benzyloxy)phenyl]-ethane] | (1.30 ± 0.01) × 10^−3 ΔA s^−1 | 26 | – | – | –
6 | OCc1cc(OCCC[Te]c2ccccc2)cc(OCCC[Te]c2ccccc2)c1 [compound 9a, 3,5-Bis[3-(phenyltelluro)propyloxy]benzyl Alcohol] | (8.8 ± 0.5) × 10^−5 ΔA s^−1 | 1.7 | (2.0 ± 0.1) × 10^1 μM min^−1 | – | –
7 | CCCCCC[Te]CCCOc1cc(CO)cc(OCCC[Te]CCCCCC)c1 [compound 9c, 3,5-Bis[3-(n-hexyltelluro)propyloxy]benzyl Alcohol] | (2.90 ± 0.06) × 10^−4- ΔA s^−1 | 5.8 | (6.9 ± 0.1) × 10^1 μM min^−1 | – | –
8 | OCc1cc(OCCC[Te]c2ccccc2)c(OCCC[Te]c2ccccc2)c(OCCC[Te]c2ccccc2)c1 [compound 15a, 3,4,5-Tris[3-(phenyltelluro)propyloxy]benzyl Alcohol] | (1.14 ± 0.02) × 10^−4 ΔA s^−1 | 2.2 | (2.66 ± 0.05) × 10^1 μM min^−1 | – | –
9 | CCCCCC[Te]CCCOc1cc(CO)cc(OCCC[Te]CCCCCC)c1OCCC[Te]CCCCCC [compound 15c, 3,4,5-Tris[3-(n-hexyltelluro)propyloxy]benzyl Alcohol] | (4.00 ± 0.05) × 10^−4 ΔA s^−1 | 7.9 | (9.5 ± 0.1) × 10^1 μM min^−1 | – | –
10 | OCc1cc(OCc2cc(OCCC[Te]c3ccccc3)cc(OCCC[Te]c3ccccc3)c2)cc(OCc2cc(OCCC[Te]c3ccccc3)cc(OCCC[Te]c3ccccc3)c2)c1 [compound 20a, 3,5-Bis(3,5-bis[3-(phenyltelluro)propyloxy]benzyloxy)benzyl Alcohol] | (1.81 ± 0.05) × 10^−4 ΔA s^−1 | 3.6 | (4.3 ± 0.1) × 10^1 μM min^−1 | – | –
11 | CN(C)c1ccc([Te]CCCOc2cc(COc3cc(CO)cc(OCc4cc(OCCC[Te]c5ccc(N(C)C)cc5)cc(OCCC[Te]c5ccc(N(C)C)cc5)c4)c3)cc(OCCC[Te]c3ccc(N(C)C)cc3)c2)cc1 [compound 20b, 3,5-Bis(3,5-bis[3-(4-dimethylaminophenyltelluro)propyloxy]benzyloxy)benzyl Alcohol] | (3.13 ± 0.05) × 10^−4 ΔA s^−1 | 6.3 | (7.4 ± 0.1) × 10^1 μM min^−1 | – | –
12 | c1ccc(OCCC[Te]c2ccccc2)cc1 [compound 23a, 1-Phenoxy-3-(phenyltelluro)propane] | (5.3 ± 0.4) × 10^−5 ΔA s^−1 | 1 | – | (1.10±0.01)×10^−1 s^−1 | 10.7 ± 0.1
13 | CN(C)c1ccc([Te]CCCOc2ccccc2)cc1 [compound 23b, 1-phenoxy-3-[4-(N,N-dimethylamino)phenyltelluro]propane] | (1.06 ± 0.05) × 10^−4 ΔA s^−1 | 2.1 | (2.5 ± 0.1) × 10^1 μM min^−1 | (3.62±0.02)×10^−1 s^−1 | 35.1 ± 0.2
14 | CCCCCC[Te]CCCCCC [compound 24, Di-n-hexyltelluride, reference compound] | (1.53 ± 0.09) × 10^−4 ΔA s^−1 | 3.0 | (3.6 ± 0.2) × 10^1 μM min^−1 | (4.5±0.4)×10^−1 s^−1 | 44 ± 4
